Like-named read-outs stand apart in the source and are kept apart here. Residues, ends and D or L forms follow the SMILES beside them.
Tests used:
Type in all cases: cell-based, Candida albicans
[1] = system: C. albicans; conditions: 2 h
Procedure: Fungistatic or fungicidal activities were determined by incubating C. albicans (10^4 cells mL^-1) in 0.05× PDB with proteins and peptides at 1× MIC and 2× MIC of at 30°C under continuous shaking (800 rpm) in a Thermomixer Comfort (Eppendorf). At defined time points, aliquots were taken and appropriate dilutions were plated on YPD agar in duplicates to promote growth of viable cells. Agar plates were incubated at 37°C for 24 h to count colony forming units (cfu) ([Huber et al., 2018]).
The determination of the MIC concentration is a well-established, reliable method to elucidate the growth reducing effect of an antifungal compound. […] To gain deeper insight into the antifungal mechanism of the generated protein and peptide variants, we compared them first for their fungicidal potential. In liquid culture C. albicans was exposed to 1× MIC and 2× MIC concentrations of each protein and peptide. After certain time points aliquots were taken and appropriate dilutions were spread on agar plates to allow colony formation of viable cells. The cfu were counted and compared to the untreated control, which was set to be 100%. […] The candidacidal effects were aggravated with higher protein concentrations.

[2] = system: C. albicans; assay: ROS production, DCFH-DA fluorometric assay; conditions: for ROS signal higher compared to Pγ: 60 min
Procedure: For the detection of ROS generation in C. albicans a dichloro-dihydro-fluorescein diacetate (DCFH-DA, Sigma-Aldrich)-based fluorometric assay was applied, adapted from [Han et al. (2016)]. Cells from an overnight culture of C. albicans, grown on YPD agar, were suspended in 0.05× PDB (Sigma-Aldrich) and the cell number was adjusted to 10^7 cells mL^-1. DCFH-DA stock solution (100 mM in DMSO) was added to the cell suspension to give a final concentration of 100 μM. This cell suspension was pre-incubated for 30 min at 30°C protected from light. Serial dilutions of the test compounds were prepared in 0.05× PDB (Sigma-Aldrich) in 96-well microtiter plates (Nunclon Delta, Thermo Fisher Scientific) in a volume of 100 μL per well. H2O2 served as a positive control for ROS induction. After pre-incubation, the DCFH-DA loaded cells were added to the test compounds (100 μL per well) to give a final volume of 200 μL in each well and the 96-well plate was placed in a multi-mode microplate reader (FLUOstar Omega, BMG Labtech), set to 30°C incubation temperature. The fluorescence signal was recorded every 5 min over a time course of 4 h at excitation and emission wavelengths of 485 and 520 nm, respectively. Measurements were prepared in duplicates and assays were performed at least three times.
Since ROS production is an early marker for programmed cell death, we were also interested whether the investigated AMPs induce ROS in C. albicans. Therefore, C. albicans cells were loaded with DCFH-DA, which is converted intracellularly to the highly fluorescent DCF when oxidized in the presence of ROS ([Chen et al., 2010]). During exposure of the cells to 0–20 μM AMPs the DCF signal intensities were recorded in RFU every 5 min over a time-course of 4 h. The background RFU of 6,757 ± 117 was detected in C. albicans cells that were not exposed to AMPs, but loaded with DCFH-DA, diluted in 0.05× PDB (0.1% DMSO final concentration). The RFU value remained constant over the time of measurement. For all AMPs, we detected a time- and dose-dependent increase of ROS (Supplementary Figure S9) and ROS production was prevented by the addition of 1 mM of the antioxidant ascorbic acid to the highest concentration (20 μM) of each AMP (Supplementary Figure S10).

[3] = system: C. albicans; conditions: 10 min exposure, mean ± SD, untreated control 1.8 ± 1.2%
Procedure: To analyze changes in cell size and to assess kinetics of cell death of C. albicans upon antifungal treatment flow cytometry was applied. For both experiments, 10^4 cells mL^-1 was incubated in 0.05× PDB with the desired AMP concentration for different time points. The incubation was performed in 1.5 mL reaction tubes at 30°C under continuous shaking at 800 rpm in a Thermomixer Comfort (Eppendorf). After incubation, the cells were centrifuged at 4°C with 3,000 ×g for 3 min. For cell size determination, the supernatant was removed and the cells were resuspended and fixed in PBS containing 3.7% (v/v) formaldehyde before changes in cell size were measured by plotting SSC against FSC. C. albicans that were incubated at 95°C for 120 min served as controls. Microscopic control-images were taken with a fluorescence microscope (Axioplan, Zeiss), equipped with a camera (Axiocam 503 mono, Zeiss) and excitation/emission filters (365/420 nm for blue fluorescence and 546/590 or 565/620 nm for red fluorescence, Zeiss). Image acquisition was performed with ZEN 2 microscope software (Zeiss, blue edition) and the cell area was measured with ImageJ 1.52d software ([Schindelin et al., 2012]).
For dead-cell staining, prior to fixation, the cells were incubated in the dark for 30 min at 4°C with 100 μL PBS containing 0.1 μL LIVE/DEAD^TM Fixable Far Red Dead Cell Stain (Thermo Fisher Scientific). The cells were then washed once in PBS and fixed in PBS containing 3.7% formaldehyde. Ethanol-inactivated dead C. albicans served as a positive staining control. The samples were then analyzed by FACS (FACSVerse Flow Cytometer, BD Biosciences), equipped with BD FACSuite software (v1.0.6.5230, BD Biosciences). Dead cells were detected at Excitation/Emission wavelength of 650/665 nm. Stained, live, and dead Candida cells were used as controls to discriminate populations and to set the gates.
To elucidate the AMPs candidacidal activities at an early stage and to compare their time and dose-dependent cell killing in more detail, fluorescence activated cell sorting (FACS) analysis with dead-cell staining was applied. To this end, C. albicans was exposed to 1× and 2× MIC of the respective AMPs for 10 min, stained with the dead-cell marker, and fixed with formaldehyde. With FACS analyses, 1.8 ± 1.2% dead cells were detected in the untreated control (Figure 3).

SMILES | Candida cells killed (cfu vs untreated control) [1]; 1 | Candida cells killed (cfu vs untreated control) [1]; 2 | ROS signal above the background ([2]; 1.3 μM, 4 h) | fluorescence signal above the background (ROS) ([2]; 20 μM, 30 min) | ROS signal higher compared to Pγ ([2]; 20 μM) | ROS signal above the level induced by Pγ ([2]; 20 μM, 4 h) | dead cells (cells killed), FACS dead-cell staining ([3]; 1× MIC) | dead cells (cells killed), FACS dead-cell staining ([3]; 2× MIC) | Candida cells killed (cfu vs untreated control) ([1]; 1× MIC, 0.05× PDB, 30°C, mean ± SD)
CC(=O)N[C@@H](CCCCN)C(=O)N[C@@H](Cc1ccc(O)cc1)C(=O)N[C@H](C(=O)NCC(=O)N[C@@H](CCCCN)C(=O)N[C@@H](CS)C(=O)N[C@@H](CCCCN)C(=O)N[C@H](C(=O)N[C@@H](CCCCN)C(=O)N[C@@H](CCCCN)C(=O)N[C@@H](CC(N)=O)C(=O)N[C@@H](CCCCN)C(=O)N[C@@H](CS)C(=O)N[C@@H](CCCCN)C(N)=O)[C@@H](C)O)[C@@H](C)O [Pγ^opt] (Ac-KYTGKCKTKKNKCK-NH2) | 29 ± 10% | 88 ± 8% | 36% | 31% | +85% | 446% | 11.7 ± 0.3% | 27.4 ± 1.3% | 
CC(=O)N[C@@H](CCCCN)C(=O)N[C@@H](Cc1ccc(O)cc1)C(=O)N[C@H](C(=O)NCC(=O)N[C@@H](CCCCN)C(=O)N[C@@H](CS)C(=O)N[C@@H](Cc1ccc(O)cc1)C(=O)N[C@@H](CCCCN)C(=O)N[C@@H](CCCCN)C(=O)N[C@@H](CCCCN)C(=O)N[C@@H](CC(N)=O)C(=O)N[C@@H](CCC(=O)O)C(=O)N[C@@H](CS)C(=O)N[C@@H](CCCCN)C(N)=O)[C@@H](C)O [Pγ^var] (Ac-KYTGKCYKKKNECK-NH2) |  | 50 ± 28% |  |  | +50% | 146% | 13.2 ± 3.2% | 27.1 ± 5.6% | no killing effects

From paper PMC6062912, “The Evolutionary Conserved γ-Core Motif Influences the Anti-Candida Activity of the Penicillium chrysogenum Antifungal Protein PAF” (Frontiers in Microbiology, 2018)
